From US9758505B2, “3-(indol-3-yl)-pyridine derivatives, pharmaceutical compositions and methods for use” (ITEOS THERAPEUTICS, priority 2014, dated 2017)

Columns and labels:
human TDO2 [1] = target: T1, human TDO2 (Homo sapiens (Human), UniProt P48775); experiment: Cellular assay for TDO2 activity, hTDO2-overexpressing P815 cells; format: cell-based; settings: murine mastocytoma P815 cells overexpressing hTDO2, overnight incubation, kynurenine in supernatant
Procedure: The compounds of Formula I inhibit the activity of human TDO2 in cells.
The assay (adapted from Pilotte L et al., Proc Natl Acad Sci USA, 2012, 109(7), 2497-502) was performed in 96-well flat bottom plates seeded with murine mastocytoma P815 cells overexpressing hTDO2 (prepared as described in Pilotte et al., PNAS, 2012, 109(7), 2497-2502), at a concentration of 5×10^4 cells/well in a final volume of 200 μL. To determine TDO or IDO activity, the cells were incubated overnight at 37° C. at 5% CO2 in IMDM (Invitrogen) supplemented with 2% FBS and 2% penicillin/streptomycin in the presence of the compounds of the present invention, at different concentrations. The cells may be obtained from the American Type Cuylture Collecion [ATCC® TIB-64™ or commercially, e.g., from Sigma-Aldrich or Life Technologies.]
The plates were then centrifuged 5 min at 1000 rpm, and 100 μL of the supernatant were collected in a conical plate, 30 uL of TCA 30% were added and a further centrifugated at 3000×g for 10 minutes. 100 μL of the supernatant were collected in a flat bottomed plate and 100 μL of 2% (w/v) 4-(dimethylamino)-benzaldehyde in acetic acid and incubated for 5 min at room temperature. Kynurenine concentrations were determined by measuring the absorbance at 480 nm. A standard curve was made with pure kynurenine. The TDO activity was measured as described above using ten serial concentrations of the compounds of the present invention. Data were fitted using the Prism™ software (GraphPad Software, Inc.) using standard software configurations.

TDO2 = TDO2 (Mus musculus (Mouse), UniProt P48776); experiment: Pharmacodynamic assay for TDO2 in vivo activity: increase of blood tryptophan levels in mice; settings: female BALB/c mice, 2 h
Source text: The compounds of the present invention increase the amount of Tryptophan in mouse blood.

human TDO2 [2] = target: T1, human TDO2; experiment: Cellular assay for TDO2 activity, A172 cells naturally expressing hTDO2; format: cell-based; settings: human glioblastoma A172 cells, overnight incubation, kynurenine in supernatant
human TDO2 [3] = target: T1, human TDO2; experiment: Assay for TDO2 enzymatic activity determination; format: biochemical; settings: human recombinant TDO2, L-Trp 1 mM, kynurenine absorbance at 480 nm
Procedure: The compounds of formula I inhibit the enzymatic activity of human TDO2.
To measure the TDO2 activity, the procedure described in Dolusic et al. J. Med. Chem.; 2011, 54, […] was adapted: the reaction mixture contained (final concentrations) potassium phosphate buffer (50 mM, pH 7.5), ascorbic acid (0.25 M), methylene blue (0.125 μM), catalase (40 units/mL, from bovine liver, Sigma), and human recombinant TDO2 enzyme (prepared as described in Dolusic et al. J. Med. Chem.; 2011, 54, 5320-5334; 0.9 μg) without or with the compounds of the present invention at the indicated concentrations (total volume 112.5 μL). The reaction was initiated by the addition of 37.5 μL of L-Trp (final concentration 1 mM) at room temperature. The reaction was conducted at room temperature during one hour and stopped by the addition of 30 μL of 30% (w/v) trichloroacetic acid.
To convert N-formylkynurenine into kynurenine, the reaction mixture was incubated at 65° C. for 30 min. Then 150 μL of the reaction mixture was mixed with 120 μL of 2.5% (w/v) 4-(dimethylamino)-benzaldehyde in acetic acid and incubated for 5 min at room temperature. Kynurenine concentrations were determined by measuring the absorbance at 480 nm. A standard curve was made with pure kynurenine. The TDO activity was measured as described above using ten serial concentrations of the compounds of the present invention. Data were fitted using the Prism™ software (GraphPad Software, Inc.) using standard software configurations.

T1 sequence (P48775 whole entry): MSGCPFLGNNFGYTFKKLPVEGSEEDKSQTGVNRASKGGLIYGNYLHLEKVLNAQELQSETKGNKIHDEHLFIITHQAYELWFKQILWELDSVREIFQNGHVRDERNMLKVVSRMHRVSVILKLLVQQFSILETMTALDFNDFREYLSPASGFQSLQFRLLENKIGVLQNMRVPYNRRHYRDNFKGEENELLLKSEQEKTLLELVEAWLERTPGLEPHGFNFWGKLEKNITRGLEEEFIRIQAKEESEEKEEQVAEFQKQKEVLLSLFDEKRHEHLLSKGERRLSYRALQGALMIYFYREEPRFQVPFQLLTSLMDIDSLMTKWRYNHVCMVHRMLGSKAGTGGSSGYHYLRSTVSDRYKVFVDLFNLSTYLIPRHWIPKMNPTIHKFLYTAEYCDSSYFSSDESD
Chain of TDO2 (P48776 whole entry): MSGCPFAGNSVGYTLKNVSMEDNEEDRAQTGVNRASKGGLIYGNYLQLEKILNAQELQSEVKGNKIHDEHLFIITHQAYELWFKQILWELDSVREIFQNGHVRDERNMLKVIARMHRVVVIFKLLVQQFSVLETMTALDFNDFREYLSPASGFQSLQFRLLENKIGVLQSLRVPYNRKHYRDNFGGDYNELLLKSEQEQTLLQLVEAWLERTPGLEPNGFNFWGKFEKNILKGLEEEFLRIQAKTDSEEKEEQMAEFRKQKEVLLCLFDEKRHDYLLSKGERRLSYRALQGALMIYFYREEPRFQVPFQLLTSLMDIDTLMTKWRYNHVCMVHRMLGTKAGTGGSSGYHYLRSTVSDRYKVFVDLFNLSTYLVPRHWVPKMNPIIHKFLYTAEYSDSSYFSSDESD

IC50 (human TDO2 [1]): 610 nM | Tryptophan concentration in plasma (average ± standard error of the mean) (TDO2; 30 mg/kg oral gavage): 27976 ± 1196 | increase of circulating Tryptophan compared to vehicle-treated controls (TDO2; 30 mg/kg oral gavage): 33% | Tryptophan concentration in plasma (average ± standard error of the mean) (TDO2; 60 mg/kg oral gavage): 33862 ± 1529 | increase of circulating Tryptophan compared to vehicle-treated controls (TDO2; 60 mg/kg oral gavage): 61% | Tryptophan concentration in plasma (average ± standard error of the mean) (TDO2; 100 mg/kg oral gavage): 35716 ± 1663 | increase of circulating Tryptophan compared to vehicle-treated controls (TDO2; 100 mg/kg oral gavage): 70% | IC50 (human TDO2 [2]): 1800 nM | IC50 (human TDO2 [3]): 970 nM
SMILES: CS(=O)(=O)NC1CCN(c2ccc(-c3c[nH]c4cc(F)ccc34)cn2)CC1 [Example 14, N-(1-(5-(6-fluoro-1H-indol-3-yl)pyridin-2-yl)piperidin-4-yl)methanesulfonamide]
